Results from PubChem BioAssay AID602129 (The Scripps Research Institute Molecular Screening Center, 2011).
Activity calls are given as the source filed them. No rule for the calls is given here.

What follows are compounds tested against Mucolipin-3 (Homo sapiens) (UniProt Q8TDD5) (assay: TRPML3 channel agonist potency, late-stage follow-up, cell-based, fluorescence, dose response, round 3 (AID 602129)). Conditions: HEK293 TRPML3 cells, calcium fluorescence.
Chain of Mucolipin-3 (Homo sapiens) (Q8TDD5 whole entry, looked up): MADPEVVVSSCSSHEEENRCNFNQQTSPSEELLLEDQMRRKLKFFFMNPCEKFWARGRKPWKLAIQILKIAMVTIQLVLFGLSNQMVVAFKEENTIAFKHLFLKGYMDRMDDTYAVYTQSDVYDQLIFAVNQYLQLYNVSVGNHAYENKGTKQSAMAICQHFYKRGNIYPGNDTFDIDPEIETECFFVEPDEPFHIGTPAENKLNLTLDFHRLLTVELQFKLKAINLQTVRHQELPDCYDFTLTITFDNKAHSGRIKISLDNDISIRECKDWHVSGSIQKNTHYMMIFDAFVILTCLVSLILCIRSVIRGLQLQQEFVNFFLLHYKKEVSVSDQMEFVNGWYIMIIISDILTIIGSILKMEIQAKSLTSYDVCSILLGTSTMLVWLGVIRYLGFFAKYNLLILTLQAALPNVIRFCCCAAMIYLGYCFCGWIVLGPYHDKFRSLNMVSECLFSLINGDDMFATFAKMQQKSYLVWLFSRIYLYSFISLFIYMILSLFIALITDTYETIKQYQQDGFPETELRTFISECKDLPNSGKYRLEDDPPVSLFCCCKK

EC50	SMILES
3.34 µM	Cc1onc(-c2ccc(Cl)cc2)c1-c1ccn(S(=O)(=O)c2cccc(C(F)(F)F)c2)n1
> 29.9 µM (inactive)	CCCCNS(=O)(=O)c1ccc(OCC)c2ccccc12
4.86 µM	Cc1ccccc1S(=O)(=O)n1ccc(-c2c(-c3ccc(Cl)cc3)noc2C)n1
> 29.9 µM (inactive)	Cc1onc(-c2ccc(Cl)cc2)c1-c1ccnn1S(=O)(=O)c1cccc(C(F)(F)F)c1
> 29.9 µM (inactive)	CCOc1ccc(S(=O)(=O)n2ccc(-c3c(-c4ccc(Cl)cc4)noc3C)n2)c2ccccc12
> 29.9 µM (inactive)	Cc1onc(-c2ccc(Cl)cc2)c1-c1ccn(S(=O)(=O)c2cccc3cccnc23)n1
> 29.9 µM (inactive)	Cc1onc(-c2ccc(Cl)cc2)c1-c1ccn(S(=O)(=O)c2ccc(C(F)(F)F)cc2)n1
inactive	Cc1onc(-c2ccc(Cl)cc2)c1-c1ccn(S(=O)(=O)c2ccc(Cl)cc2)n1
1.95 µM	Cc1onc(-c2ccc(Cl)cc2)c1-c1ccn(S(=O)(=O)c2cccc(Cl)c2)n1
0.68 µM	Cc1ccc(S(=O)(=O)n2ccc(-c3c(-c4ccc(F)cc4)noc3C)n2)cc1
3.58 µM	Cc1onc(-c2ccc(Cl)cc2)c1-c1ccn(S(=O)(=O)c2ccccc2C(F)(F)F)n1
3.78 µM	COc1ccc(S(=O)(=O)n2ccc(-c3c(-c4ccc(Cl)cc4)noc3C)n2)cc1
> 29.9 µM (inactive)	CCOc1ccc(S(=O)(=O)N2CCCC2)c2ccccc12
3.46 µM	CCOc1ccc(S(=O)(=O)N2CCCCC2)c2ccccc12
> 29.9 µM (inactive)	CCOc1ccc(S(=O)(=O)N(CC)CC)c2ccccc12
> 29.9 µM (inactive)	CCOc1ccc(S(=O)(=O)NCc2ccncc2)c2ccccc12
> 29.9 µM (inactive)	Cc1onc(-c2ccc(Cl)cc2)c1-c1ccnn1S(=O)(=O)c1ccc(Cl)cc1

EC50	SMILES
> 29.9 µM (inactive)	Cc1onc(-c2ccc(Cl)cc2)c1-c1ccn(S(C)(=O)=O)n1
> 29.9 µM (inactive)	Cc1ccc(S(=O)(=O)n2nccc2-c2c(-c3ccccc3)noc2C)cc1
> 29.9 µM (inactive)	Cc1onc(-c2ccc(Cl)cc2)c1-c1ccn(S(=O)(=O)C(F)(F)F)n1
> 29.9 µM (inactive)	Cc1onc(-c2ccccc2)c1-c1ccn(S(=O)(=O)c2ccc(Cl)cc2)n1
2.39 µM	Cc1onc(-c2ccc(Cl)cc2)c1-c1ccn(S(=O)(=O)c2ccccc2)n1
> 29.9 µM (inactive)	CCOc1ccc(S(=O)(=O)N2CCOCC2)c2ccccc12
> 29.9 µM (inactive)	CCOc1ccc(S(=O)(=O)N2CCN(c3ccccc3Cl)CC2)c2ccccc12
> 29.9 µM (inactive)	CCOc1ccc(S(=O)(=O)N2CCSCC2)c2ccccc12
> 29.9 µM (inactive)	Cc1onc(-c2ccccc2)c1-c1ccnn1S(=O)(=O)c1ccc(Cl)cc1
> 29.9 µM (inactive)	Cc1onc(-c2ccc(Cl)cc2)c1-c1ccn(S(=O)(=O)c2cccs2)n1
2.99 µM	COc1ccc(-c2noc(C)c2-c2ccn(S(=O)(=O)c3ccc(C)cc3)n2)cc1
> 29.9 µM (inactive)	CCOc1ccc(S(=O)(=O)N2CCN(C(=O)OC(C)(C)C)CC2)c2ccccc12
1.46 µM	Cc1ccc(S(=O)(=O)n2ccc(-c3c(-c4ccccc4)noc3C)n2)cc1
> 29.9 µM (inactive)	CCOc1ccc(S(=O)(=O)NCc2ccc(OC)cc2)c2ccccc12
inactive	CC(C)Oc1ccc(S(=O)(=O)N2CCCCCC2)c2ccccc12
0.476 µM	COc1ccc(S(=O)(=O)N2CCCCCC2)c2ccccc12
1.53 µM	Cc1onc(-c2ccc(Cl)cc2)c1-c1ccn(S(=O)(=O)c2ccccc2Cl)n1
